The nature of data set [1]: t1/2 after incubation with human hepatocytes. In kind it is in vitro ADME. The conditions noted are these: male; cryopreserved human hepatocytes in suspension, 10 nM compound, 37° C., sampled at 0.5, 1 and 3 h, LC-MS/MS. On the procedure:
(§1) The half-life of a compound as a result of contact with human hepatocytes holds as a reliable indication of metabolic stability. As it is well known that the absorption of this class of steroids is high, this assay provides an in vitro model for oral activity in humans.
(§2) Hepatocytes collected from healthy young (25-45 year) male organ donors were cryo preserved in liquid nitrogen and kept there until use. They were thawed at 37° C. in a waterbath, placed immediately on ice, washed twice in one volume of cold (4° C.) incubation medium [William's medium E (without phenol red) with Glutamax I®, gentamicin 50 μg/ml, insulin 1 μM, hydrocortisone hemisuccinate 10 μM, fetal calf serum 0% (v/v)], counted and the viability checked by Trypan blue exclusion. Cells were incubated as suspensions in 12-wells (non-coated) plates at a nominal density of 0.5×10^6 cells/well in 1.5 ml medium at 37° C. with an air/O2/CO2 mixture (55/40/5). The plates were set on an orbital shaker at approximately 10 rpm.
(§3) The hepatocytes were incubated with 10 nM final concentration of the compound to be tested. The incubations were stopped after 0.5, 1 and 3 h by pipetting the whole incubation mixture into a glass tube and adding one volume of acetone on ice. The acetone was dried under a nitrogen flow at room temperature, the volume adjusted to 1.5 ml and the tubes were centrifuged at 4° C. at 10.000×g for 30 min. The de-proteinized supernatants were collected for LC-MS/MS analysis.

In a further data set the test system is human hepatocytes. The data set is described as follows: t1/2 after incubation with human hepatocytes. In kind it is in vitro ADME. To be noted: cryopreserved human hepatocytes in suspension, 10 nM compound, 37° C., sampled at 0.5, 1 and 3 h, LC-MS/MS. On the procedure: as §1, §2, §3
Another data set concerns serum LH. Nature of the data set: LH suppression assay in mature male castrated rat model. In kind it is in vivo. The conditions noted are these: mature male castrated rats, po daily for 4 days in arachis oil suspension, serum LH 3 hours after last oral dose; for ED50: Rattus norvegicus, read-out: ED50 (po) required to suppress serum LH for 50% (±10%). On the procedure: The in vivo potency of several androgens of the invention was determined in a mature male castrated rat model, in comparison with MENT.
In this model serum LH is high (50× fold higher than with intact rats, due to the absence of the negative feedback of testicular testosterone). These rats are po treated for 4 days daily with a given compound of the invention in a suspension fluid of arachisoil. Before dosing and 3 hours after the last oral dose blood is collected via tail vene and in the serum LH is determined. Potency of the androgens (ED50) are expressed as the amount (mg/kg) of androgen which suppresses serum LH for 50% (±10%).
The rat LH Time-Resolved Immuno Fluorometric Assay (TR-IFMA) has been developed in house using home made reagents, a monoclonal catching antibody directed against the β-subunit of human chorion gonadotrophin (hCG, which cross react with rat β-subunit) and a biotin labelled detecting antibody (rabbit polyclonal antibody directed against the alfa-subunit of recombinant rat LH). Recombinant rat LH was prepared according to the methods described by Hakola et al (1997). In this two-site-IFMA, only intact rat LH is determined by a final incubation with streptavidin-europium. The detection in the IFMA is based on fluorescence of the lanthanide europium during a relative long exitation period. The concentration range of rat LH standard is 0.001-10 ng/ml, for optimal accuracy measurements of serum LH serum samples were diluted 8-times with assay buffer [Hakola, K., Boogaart, P. V., Mulders, J., de Leeuw, R., Schoonen, W., Heyst, J. V., Swolfs, A., Casteren, J. V., Huhtaniemi, I., and Kloosterboer, H. J., Recombinant rat luteinizing hormone; production by Chinese hamster ovary cells, purification and functional characterization, Molecular & Cellular Endocrinology 128, 47 (1997)].

These results are taken from patent publication US6756366B1, “Orally active androgens” (Akzo Nobel N.V., priority 1999, dated 2004).

For orientation: half-life means how long it takes for the measured level to halve. By ED50 is commonly meant the midpoint of the dose-response relation. The melting point is the temperature, or range, at which the solid turns liquid.

As for `C[C@]12CC[C@H]3[C@@H]([C@H](C4CC4)CC4=CC(=O)CC[C@@H]43)[C@@H]1CC[C@@H]2O` [Example 10, (7α,17β)-7-Cyclopropyl-17-hydroxyestr-4-en-3-one], the half-life at 10 nM in data set [1] was determined as 30 min.

As to `C/C=C/[C@@H]1CC2=CC(=O)CC[C@@H]2[C@H]2CC[C@]3(C)[C@@H](O)CC[C@H]3[C@@H]21` [Example 6a, [7α(E),17β]-17-Hydroxy-7-(1-propenyl)estr-4-en-3-one], in the data set on human hepatocytes, the “t1/2 after incubation with human hepatocytes” value amounted to 30 min.

Consider `C=C[C@@H]1CC2=CC(=O)CC[C@@H]2[C@H]2CC[C@]3(C)[C@@H](O)CC[C@H]3[C@@H]21` [Example 4, (7α,17β)-7-Ethenyl-17-hydroxyestr-4-en-3-one], for which the ED50 with serum LH is 2.5 mg/kg.

For the compound `CC[C@@H]1CC2=C(CC[C@@H](O)C2)[C@H]2CC[C@]3(C)[C@@H](O)CC[C@H]3[C@H]12`, the melting point lay within 98 to 100 °C.

`CC[C@@H]1CC2=CC(=O)CC[C@@H]2[C@H]2CC[C@]3(CC)[C@@H](O)CC[C@H]3[C@H]12` [Example 13, (7α,17β)-7,13-Diethyl-17-hydroxygon-4-en-3-one] showed a half-life at 10 nM in data set [1] of 48 min.

`CC[C@@H]1CC2=CC(=O)CC[C@@H]2[C@H]2CC[C@]3(C)[C@@H](O)CC[C@H]3[C@H]12` [Example 1, (7α,17β)-7-Ethyl-17-hydroxyestr-4-en-3-one]: the melting point fell in the range of 142.5 to 143.5 °C. Besides, in the data set on serum LH, the ED50 turned out to be 2.5 mg/kg. In data set [1], this compound came in with a half-life at 10 nM of 48 min.

Regarding `C[C@@H]1CC2=CC(=O)CC[C@@H]2[C@H]2CC[C@]3(C)[C@@H](O)CC[C@H]3[C@@H]21` [MENT, 7α-methyl-19-nortestosterone, reference compound], the “ED50 (po) required to suppress serum LH for 50% (±10%)” value in the data set with serum LH was 10 mg/kg. In addition, the “t1/2 after incubation with human hepatocytes” value with human hepatocytes is 20 min.

In turn, `C=C[C@@H]1CC2=CC(=O)CC[C@@H]2[C@H]2CC[C@]3(CC)[C@@H](O)CC[C@H]3[C@@H]21` [Example 14, (7α,17β)-7-Ethenyl-13-ethyl-17-hydroxygon-4-en-3-one] returned a half-life at 10 nM in data set [1] of 20 min.

As to `C=C[C@@H]1CC2=CC(=O)CC[C@@H]2[C@@H]2[C@@H]1[C@@H]1CC[C@H](O)[C@@]1(C)C[C@@H]2C` [Example 12, (7α,11β,17β)-7-Ethenyl-17-hydroxy-11-methylestr-4-en-3-one], in the data set on serum LH, the median effective dose (ED50) stood at 5 mg/kg.

For the compound `CC[C@@H]1CC2=CCCC[C@@H]2[C@H]2CC[C@]3(C)[C@@H](O)CC[C@H]3[C@H]12`, the melting point lay in the range of 155 to 157 °C.

As to `C=C[C@@H]1CC2=C/C(=N/O)CC[C@@H]2[C@H]2CC[C@]3(C)[C@@H](O)CC[C@H]3[C@@H]21`, the melting point was 206 to 224 °C.

As for `CC[C@@H]1CC2=CC(=O)CC[C@@H]2[C@@H]2[C@@H]1[C@@H]1CC[C@H](O)[C@@]1(C)C[C@@H]2C` [Example 11, (7α,11β,17β)-7-Ethyl-17-hydroxy-11-methylestr-4-en-3-one], the ED50 in the data set on serum LH is 5 mg/kg.
